Where a name gives a salt, the structure may show the parent alone.
What was measured:
[1] = biological target: ATM (Homo sapiens (Human), UniProt Q13315); test: ATM in Cell Western Assay (pKAP1 in etoposide-treated MCF-7 cells); type: cell-based
Method in brief: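 After paraformaldehyde fixation and Triton X-100 permeabilization, immunostained plates were read by infrared scanning (ODYSSEY CLx). Compound was given as 10 doses, 3-fold dilutions from a 1 μM final top concentration.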

[2] = biological target: DNA-PK (Homo sapiens (Human), UniProt P78527); test: DNA-PK Enzyme-Linked Immunosorbent Assay (phosphorylation of GST-p53 (1-101) peptide); type: biochemical; conditions: ELISA
Method in brief: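 Inhibition measured by 450 nm absorbance after HRP/TMB detection of phospho-Ser15 on immobilized GST-p53 (1-101). The kinase reaction used 0.1 μg/mL DNA-PK and 20 μM ATP, 1 h at 25 °C. Ten 3-fold compound dilutions, top final concentration 100 nM.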

[3] = pKAP1 in etoposide-treated MCF-7 cells
[4] = MCF-7 cells, etoposide 100 μM, 1 hr, pKAP1 readout

Chain of ATM (Q13315 whole entry): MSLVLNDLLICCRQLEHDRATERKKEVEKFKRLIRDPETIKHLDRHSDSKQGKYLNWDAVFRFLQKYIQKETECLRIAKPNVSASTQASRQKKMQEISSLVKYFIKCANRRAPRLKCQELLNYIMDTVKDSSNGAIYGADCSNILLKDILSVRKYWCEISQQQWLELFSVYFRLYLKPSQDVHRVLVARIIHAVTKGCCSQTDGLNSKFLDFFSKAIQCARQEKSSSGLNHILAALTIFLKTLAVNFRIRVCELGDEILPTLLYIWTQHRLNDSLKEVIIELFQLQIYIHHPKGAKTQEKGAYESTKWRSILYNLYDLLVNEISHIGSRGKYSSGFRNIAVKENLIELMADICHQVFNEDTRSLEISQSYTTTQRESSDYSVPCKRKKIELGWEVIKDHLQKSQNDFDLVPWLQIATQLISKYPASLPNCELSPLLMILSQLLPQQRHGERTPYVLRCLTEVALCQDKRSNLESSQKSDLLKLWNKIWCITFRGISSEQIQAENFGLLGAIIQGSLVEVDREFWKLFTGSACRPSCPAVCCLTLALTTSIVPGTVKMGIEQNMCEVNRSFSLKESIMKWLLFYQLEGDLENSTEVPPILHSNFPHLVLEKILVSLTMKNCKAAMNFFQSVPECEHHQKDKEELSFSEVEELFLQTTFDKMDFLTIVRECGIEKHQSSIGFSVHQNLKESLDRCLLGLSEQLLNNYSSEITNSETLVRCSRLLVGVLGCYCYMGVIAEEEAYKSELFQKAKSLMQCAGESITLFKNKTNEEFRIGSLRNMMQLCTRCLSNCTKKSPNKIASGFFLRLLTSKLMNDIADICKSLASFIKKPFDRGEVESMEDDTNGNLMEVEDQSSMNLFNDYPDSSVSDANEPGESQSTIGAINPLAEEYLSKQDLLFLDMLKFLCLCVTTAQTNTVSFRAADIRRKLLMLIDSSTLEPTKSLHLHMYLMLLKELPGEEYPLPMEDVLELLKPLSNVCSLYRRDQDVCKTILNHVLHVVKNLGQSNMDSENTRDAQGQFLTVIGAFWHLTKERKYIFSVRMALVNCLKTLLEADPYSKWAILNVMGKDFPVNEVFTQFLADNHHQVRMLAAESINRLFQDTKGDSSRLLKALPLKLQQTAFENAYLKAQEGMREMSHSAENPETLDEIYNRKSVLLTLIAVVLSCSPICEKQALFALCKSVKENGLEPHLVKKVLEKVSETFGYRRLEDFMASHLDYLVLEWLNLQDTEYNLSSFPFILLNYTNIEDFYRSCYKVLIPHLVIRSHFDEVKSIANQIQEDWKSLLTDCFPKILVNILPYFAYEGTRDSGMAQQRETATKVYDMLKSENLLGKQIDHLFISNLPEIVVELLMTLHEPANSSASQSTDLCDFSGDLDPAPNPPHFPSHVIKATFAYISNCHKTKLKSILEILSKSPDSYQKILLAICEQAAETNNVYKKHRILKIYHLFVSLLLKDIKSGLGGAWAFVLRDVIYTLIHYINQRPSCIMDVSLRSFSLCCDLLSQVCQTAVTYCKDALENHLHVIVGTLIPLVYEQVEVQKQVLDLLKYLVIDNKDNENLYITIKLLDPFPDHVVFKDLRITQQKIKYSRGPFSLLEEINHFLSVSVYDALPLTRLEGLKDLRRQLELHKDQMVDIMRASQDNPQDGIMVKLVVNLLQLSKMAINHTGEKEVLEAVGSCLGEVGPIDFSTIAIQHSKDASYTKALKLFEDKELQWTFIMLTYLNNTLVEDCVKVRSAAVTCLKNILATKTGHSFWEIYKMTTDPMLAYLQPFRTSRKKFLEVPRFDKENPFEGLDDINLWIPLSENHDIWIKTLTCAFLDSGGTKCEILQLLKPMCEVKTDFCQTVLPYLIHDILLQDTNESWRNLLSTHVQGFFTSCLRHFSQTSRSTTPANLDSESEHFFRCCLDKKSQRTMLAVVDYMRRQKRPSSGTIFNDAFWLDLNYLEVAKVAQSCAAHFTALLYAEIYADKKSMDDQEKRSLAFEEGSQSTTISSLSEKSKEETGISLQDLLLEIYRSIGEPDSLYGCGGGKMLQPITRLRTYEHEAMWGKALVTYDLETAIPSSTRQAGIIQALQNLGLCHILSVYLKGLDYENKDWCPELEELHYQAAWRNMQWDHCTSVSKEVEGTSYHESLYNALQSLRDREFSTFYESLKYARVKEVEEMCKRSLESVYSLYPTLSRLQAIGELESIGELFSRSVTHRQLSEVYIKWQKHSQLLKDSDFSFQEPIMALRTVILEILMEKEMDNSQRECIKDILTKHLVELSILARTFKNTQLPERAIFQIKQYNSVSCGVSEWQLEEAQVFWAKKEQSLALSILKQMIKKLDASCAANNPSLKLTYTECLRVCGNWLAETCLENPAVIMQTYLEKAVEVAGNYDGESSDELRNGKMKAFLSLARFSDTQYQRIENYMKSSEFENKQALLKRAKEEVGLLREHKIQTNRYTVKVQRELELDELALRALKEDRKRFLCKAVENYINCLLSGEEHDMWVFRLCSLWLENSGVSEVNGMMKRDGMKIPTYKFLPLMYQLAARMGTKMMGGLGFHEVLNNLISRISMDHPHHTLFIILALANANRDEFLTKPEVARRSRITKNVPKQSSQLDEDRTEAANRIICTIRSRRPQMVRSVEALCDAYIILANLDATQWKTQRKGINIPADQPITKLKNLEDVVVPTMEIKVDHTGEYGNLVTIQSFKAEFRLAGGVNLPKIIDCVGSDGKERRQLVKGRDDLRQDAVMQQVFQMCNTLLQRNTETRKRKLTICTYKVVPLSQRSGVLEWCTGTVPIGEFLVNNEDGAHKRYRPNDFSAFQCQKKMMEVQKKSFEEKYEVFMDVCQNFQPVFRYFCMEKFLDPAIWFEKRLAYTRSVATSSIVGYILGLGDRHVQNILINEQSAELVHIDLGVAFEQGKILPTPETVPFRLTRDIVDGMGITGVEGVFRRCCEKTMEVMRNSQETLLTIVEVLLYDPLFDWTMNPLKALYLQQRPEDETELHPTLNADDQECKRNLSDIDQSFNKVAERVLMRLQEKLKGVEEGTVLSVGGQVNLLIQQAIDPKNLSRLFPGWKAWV

Row | IC50 [1, 3] | IC50 ([2]; 20 μM ATP) | IC50 [1, 4] | IC50 ([2]; ATP 20 μM) | Compound
1 | 1 to 100 nM | 1 to 100 nM |  |  | CC(C)NCCOc1ncc(-c2cc3c4c(cnc3cc2F)N(C)C(=O)C42CCC2)cc1NS(=O)(=O)N1CCC1 [Example 370, N-(5-(7′-Fluoro-3′-methyl-2′-oxo-2′,3′-dihydrospiro [cyclobutane-1,1′-pyrrolo[2,3-c]quinolin]-8′-yl)-2-(2-(isopropylamino)ethoxy)pyridin-3-yl)azetidine-1-sulfonamide]
2 |  |  | 1 to 100 nM | 1 to 100 nM | CN1CCN(c2ncc(-c3ccc4ncc5c(c4c3)C3(CCC3)C(=O)N5C)cc2NS(=O)(=O)c2ccccc2)CC1 [Example 243, N-(5-(3′-Methyl-2′-oxo-2′,3′-dihydrospiro[cyclobutane-1,1′-pyrrolo[2,3-c]quinolin]-8′-yl)-2-(4-methylpiperazin-l-yl)Pyridin-3-yl)benzenesulfonamide]
3 |  |  | 1 to 100 nM | < 0.5 nM | CN(C)CCCOc1ncc(-c2ccc3ncc4c(c3c2)C2(CCC2)C(=O)N4C)cc1NS(=O)(=O)C(F)(F)F [Example 239, N-(2-(3-(Dimethylamino)propoxy)-5-(3′-methyl-2′-oxo-2′,3′-dihydrospiro [cyclobutane-1,1′-pyrrolo[2,3-c]quinolin]-8′-yl)pyridin-3-yl)-1,1,1-trifluoromethane-sulfonamide]
4 |  |  | 1 to 100 nM | > 100 nM | CN(C)CCCOc1ncc(-c2ccc3ncc4c(c3c2)C2(CCC2)C(=O)N4C)cc1NS(=O)(=O)c1cncc(C(F)(F)F)c1 [Example 141, N-(2-(3-(Dimethylamino)propoxy)-5-(3′-methyl-2′-oxo-2′,3′-dihydrospiro[cyclobulane-1,1′-pyrrolo[2,3-c]quinolin]-8′-yl)pyridin-3-yl)-5-(trifluoromethyl)pyridine-3-sulfonamide hydrochloride]
5 |  |  | 1 to 100 nM | < 0.5 nM | CNCCOc1ncc(-c2ccc3ncc4c(c3c2)C2(CCC2)C(=O)N4C)cc1NS(=O)(=O)c1ccccc1 [Example 250, N-(5-(3′-Methyl-2′-oxo-2′,3′-dihydrospiro[cyclobutane-1,1′-pyrrolo[2,3-c]quinolin]-8′-yl)-2-(2-(methylamino)ethoxy)pyridin-3-yl) benzenesulfonamide]
6 | > 100 nM | 1 to 100 nM |  |  | CC(C)NCCOc1ncc(-c2cc3c(cc2F)ncc2c3[C@]3(C[C@@H](c4cccc(F)c4)C3)C(=O)N2C)cc1NS(C)(=O)=O [Example 425, trans-N-(5-(7′-Fluoro-3-(3-fluorophenyl)-3′-methyl-2′-oxo-2′,3′-dihydrospiro[cyclobutane-1,1′-pyrrolo[2,3-c]quinolin]-8′-yl)-2-(2-(isopropylamino)ethoxy)pyridin-3-yl)methanesulfonamide]
7 |  |  | < 0.5 nM | 0.5 to 1 nM | CN(C)CCCOc1ncc(-c2ccc3ncc4c(c3c2)C2(CCC2)C(=O)N4C)cc1NS(=O)(=O)N(C)C [Example 149, 8′-{6-[3-(Dimethylamino)propoxy]-5-[(dimethylsulfamoyl)amino]pyridine-3-yl}-3′-methyl-2′,3′-dihydrospiro[cyclobutane-1,1′-pyrrolo[2,3-c]quinoline]-2′-one hydrochloride]
8 |  |  | 1 to 100 nM | < 0.5 nM | CN1C(=O)C2(CCC2)c2c1cnc1ccc(-c3cnc(OCCCN4CCCC(F)C4)c(NS(C)(=O)=O)c3)cc21 (centres unmarked) [Example 282, N-(2-(3-(3-Fluoropiperidin-1-yl)propoxy)-5-(3′-methyl-2′-oxo-2′,3′-dihydrospiro[cyclobutane-1,1′-pyrrolo[2,3-c]quinolin]-8′-yl)pyridin-3-yl)methanesulfonamide]
9 |  |  | 1 to 100 nM | 1 to 100 nM | CC1CCCN(S(=O)(=O)Nc2cc(-c3ccc4ncc5c(c4c3)C3(CCC3)C(=O)N5C)cnc2OCCCN(C)C)C1 (centres unmarked) [Example 175, N-(2-(3-(Dimethylamino)propoxy)-5-(3′-methyl-2′-oxo-2′,3′-dihydrospiro [cyclobutane-1,1′-pyrrolo[2,3-c]quinolin]-8′-yl)pyridin-3-yl)-3-methylpiperidine-1-sulfonamide]
10 |  |  | 1 to 100 nM | < 0.5 nM | Cc1ccc(S(=O)(=O)Nc2cc(-c3ccc4ncc5c(c4c3)C3(CC3)C(=O)N5C)cnc2OCCCN(C)C)cc1 [Example 100, N-(2-(3-(Dimethylamino)propoxy)-5-(3′-methyl-2′-oxo-2′,3′-dihydrospiro [cyclopropane-1,1′-pyrrolo[2,3-c]quinolin]-8′-yl)pyridin-3-yl)-4-methylbenzenesulfonamide]
11 |  |  | 1 to 100 nM | 0.5 to 1 nM | CN1C(=O)C2(CCC2)c2c1cnc1ccc(-c3cnc(N4CCC(N5CCCCC5)CC4)c(NS(=O)(=O)c4ccccc4)c3)cc21 [Example 155, N-(2-([1,4′-Bipiperidin]-1′-yl)-5-(3′-methyl-2′-oxo-2′,3′-dihydrospiro[cyclobulane-1,1′-pyrrolo[2,3-c]quinolin]-8′-yl)pyridin-3-yl)benzenesulfonamide hydrochloride]
12 | 1 to 100 nM | 1 to 100 nM |  |  | CC(C)NCCOc1ncc(-c2cc3c4c(cnc3cc2F)N(C)C(=O)C42CN(C3CCC3)C2)cc1NS(C)(=O)=O [Example 497, N-(5-(1-Cyclobutyl-7′-fluoro-3′-methyl-2′-oxo-2′,3′-dihydrospiro[azetidine-3,1′-pyrrolo[2,3-c]quinolin]-8′-yl)-2-(2-(isopropylamino)ethoxy)pyridin-3-yl)methanesulfonamide hydrochloride]
13 |  |  | 1 to 100 nM | 1 to 100 nM | COc1ccc(S(=O)(=O)Nc2cc(-c3ccc4ncc5c(c4c3)C3(CCC3)C(=O)N5C)cnc2OCCCN(C)C)cc1 [Example 144, N-(2-(3-(Dimethylamino)propoxy)-5-(3′-methyl-2′-oxo-2′,3′-dihydrospiro [cyclobutane-1,1′-pyrrolo[2,3-c]quinolin]-8′-yl)pyridin-3-yl)-4-methoxybenzenesulfonamide hydrochloride]
14 |  |  | 0.5 to 1 nM | 1 to 100 nM | COc1cc2ncc3c(c2cc1-c1cnc(OCCCN(C)C)c(NS(=O)(=O)c2ccccc2)c1)C1(CC1)C(=O)N3C [Example 82, N-(2-(3-(Dimethylamino)propoxy)-5-(7-methoxy-3′-methyl-2′-oxo-2′,3′-dihydrospiro[cyclopropane-1,1′-pyrrolo[2,3-c]quinolin]-8′-yl)pyridin-3-yl) benzenesulfonamide]
15 |  |  | 1 to 100 nM | 1 to 100 nM | CN1C(=O)C2(CC2)c2c1cnc1cc(F)c(-c3cnc(OCCCN4CCCCC4)c(NS(=O)(=O)c4ccccc4)c3)cc21 [Example 118, N-(5-(7′-Fluoro-3′-methyl-2′-oxo-2′,3′-dihydrospiro[cyclopropane-1,1′-pyrrolo[2,3-c]quinolin]-8′-yl)-2-(3-(piperidin-1-yl)propoxy)pyridin-3-yl)benzenesulfonamide hydrochloride]
16 |  |  | 1 to 100 nM | 0.5 to 1 nM | CN1C(=O)C2(CCC2)c2c1cnc1ccc(-c3cnc(N4CCC(N5CCCC(F)(F)C5)CC4)c(NS(C)(=O)=O)c3)cc21 [Example 251, N-(2-(3,3-Difluoro-[1,4′-bipiperidin]-1′-yl)-5-(3′-methyl-2′-oxo-2′,3′-dihydrospiro[cyclobutane-1,1′-pyrrolo[2,3-c]quinolin]-8′-yl)pyridin-3-yl)methanesulfonamide]
17 |  |  | 0.5 to 1 nM | 1 to 100 nM | COCCN(C)CCCOc1ncc(-c2ccc3ncc4c(c3c2)C2(CCC2)C(=O)N4C)cc1NS(C)(=O)=O [Example 278, N-(2-(3-((2-Methoxyethyl)(methyl)amino)propoxy)-5-(3′-methyl-2′-oxo-2′,3′-dihydrospiro[cyclobutane-1,1′-pyrrolo[2,3-c]quinolin]-8′-yl)pyridin-3-yl)methanesulfonamide]
18 |  |  | 1 to 100 nM | 0.5 to 1 nM | CN1C(=O)C2(CCC2)c2c1cnc1ccc(-c3cnc(N4CC(N(C)C)C4)c(NS(=O)(=O)N(C)C)c3)cc21 [Example 288, 8′-(6-[3-(Dimethylamino)azetidin-1-yl]-5-[(dimethylsulfamoyl)amino]pyridin-3-yl}-3′-methyl-2′,3′-dihydrospiro [cyclobutane-1,1′-pyrrolo[2,3-c]quinoline]-2′-one]
19 |  |  | 1 to 100 nM | < 0.5 nM | Cc1cc(S(=O)(=O)Nc2cc(-c3ccc4ncc5c(c4c3)C3(CCC3)C(=O)N5C)cnc2N2CCN(C)CC2)sn1 [Example 246, 3-Methyl-N-(5-(3′-methyl-2′-oxo-2′,3′-dihydrospiro[cyclobutane-1,1′-pyrrolo[2,3-c]quinolin]-8′-yl)-2-(4-methylpiperazin-1-yl)pyridin-3-yl)isothiazole-5-sulfonamide]
20 |  |  | 1 to 100 nM | 1 to 100 nM | CN1C(=O)C2(CCC2)c2c1cnc1ccc(-c3cnc(OCCCN4CCCCC4)c(NS(=O)(=O)c4cccnc4)c3)cc21 [Example 252, N-(5-(3′-Methyl-2′-oxo-2′,3′-dihydrospiro [cyclobutane-1,1′-pyrrolo [2,3-c]quinolin]-8′-yl)-2-(3-(piperidin-1-yl)propoxy)pyridin-3-yl)pyridine-3-sulfonamide]
21 |  |  | 1 to 100 nM | 1 to 100 nM | CN1C(=O)C2(CCC2)c2c1cnc1cc(F)c(-c3cnc(N4CC(N(C)C)C4)c(NS(C)(=O)=O)c3)cc21 [Example 317, N-(2-(3-(Dimethylamino)azetidin-1-yl)-5-(7′-fluoro-3′-methyl-2′-oxo-2′,3′-dihydrospiro[cyclobulane-1,1′-pyrrolo[2,3-c]quinolin]-8′-yl)pyridin-3-yl)methanesulfonamide hydrochloride]
22 | 1 to 100 nM | 0.5 to 1 nM |  |  | CCOC[C@H]1C[C@]2(C1)C(=O)N(C)c1cnc3cc(F)c(-c4cnc(OCCNC(C)C)c(NS(C)(=O)=O)c4)cc3c12 [Example 406, cis-N-(5-(3-(Ethoxymethyl)-7′-fluoro-3′-methyl-2′-oxo-2′,3′-dihydrospiro[cyclobutane-1,1′-pyrrolo[2,3-c]quinolin]-8′-yl)-2-(2-(isopropylamino)ethoxy)pyridin-3-yl)methanesulfonamide]
